In patent publication US10184933B2, “Compositions, systems and methods for gene expression noise drug screening and uses thereof” (priority 2013, dated 2019):
Entries after “also recorded” stand apart in the source; their conditions may differ. Counter-ions that a name gives are not always drawn. Like-named read-outs stand apart in the source and are kept apart here.

Experiments:
HIV-1 LTR promoter [1] = assay type: cell-based; settings: for variability in gene expression (noise magnitude): known transcriptional modulators applied to the isoclone target, FIG. 6D
HIV-1 LTR promoter [2] = experiment: Two-reporter system (LTR-d2GFP and LTR-mCherry) noise measurement; assay type: cell-based; settings: FIG. 6E; for d2GFP noise / mCherry noise: known transcriptional activators; for transcriptional burst frequency (decreasing noise in mCherry): transcriptional modifiers
Protocol: Without being bound by theory, a destabilized reporter is required to observe transcriptional noise with shorter time scales. GFP noise magnitude (quantified by the variance over the mean fluorescence squared, CV^2) and mean fluorescence were measured by high-throughput flow cytometry 24 hours post 10 uM drug exposure. To control for extrinsic variability in gene expression due to cell volume and state a conservative gating on the population forward versus side scatter was applied (See General Methods). A second LTR driving a long-lived mCherry reporter was integrated and screened alongside the destabilized reporter drug target to control for fluctuations in global resources and post-transcriptional noise sources (FIG. 6E).
To distinguish between compounds that primarily target transcription versus post-transcriptional processes and global resources (extrinsic noise) a second reporter of the LTR promoter driving a stable mCherry gene was included in the same targeted cell population used in the drug noise screen (FIG. 6E). The stable reporter averages out and is unaffected by fluctuations due to episodic transcription. Theory predicts that the destabilized d2GFP reporter can detect transcriptional bursting noise contributions (γp>>kon,koff, where γp is the fluorescent reporter degradation rate) while the two reporters together will move their noise magnitudes to changes in non-transcriptional noise sources. Filtering out non-transcriptional noise signatures of VM hits increases the probability for synergistic reactivation of latency. Noise from the two reporters was compared using the same processing as the LTR-d2GFP. The LTR-mCherry ΔCV^2 of the 85 selected VMs primarily land along the ΔCV^2 d2GFP axis. […]. Of these 25 compounds 15 were identified as modifiers of cell cycle, ATP, inflammation, post-translational modifications, and translation.
In addition to the GFP reporter in the LTR-d2GFP cell line, an LTR driving a long half-life mCherry reporter was present in the cell line. […] To remove compounds that altered CV^2 post transcriptionally, compounds that affected the CV^2 long-lived red reporter while conserving its mean mCherry level were removed. This method continues development of the original and decade-old 2-reporter system for intrinsic versus extrinsic noise measurements in bacteria (Elowitz et al., (2002) Science 297:1183-1186).

[3] = in vivo, cited from earlier work
HIV-1 LTR promoter [4] = experiment: Single-cell time-lapse fluorescence microscopy of polyclonal LTR d2GFP cell population; assay type: cell-based
Description: Lentiviral vectors expressing the LTR-GFP cassette in the absence of Tat were described (Weinberger et al., 2005, Cell, 122(2):169-182) and used to infect 5×10^5 Jurkat cells at a multiplicity of infection <0.1, resulting in 25,000-50,000 infected cells each presumably with a unique integration site. Cells were then sorted by FACS to isolate green fluorescent protein-labeled (GFP+) cells and fluorescently imaged on glass-bottom dishes in RPMI 1640 with 10% fetal calf serum and 1% penicillin-streptomycin and 10 μM of VM at t=0 h for the population which was pre-treated with VM 1 day before imaging. […] For each trajectory, noise autocorrelation [Φ(t)] and magnitude (CV^2) were calculated using an established noise-processing algorithm (Weinberger at al., 2008, Nature Genetics, 40(4):466-470; Dar at al., 2012, Proc Natl Acad Sci USA 109:17454-17459; Boehm et al., 2013, Cell Cycle 12:452-462).
To assess whether identified VMs are specific to the integration site of the drug screen target, a polyclonal LTR d2GFP population was treated with select VM hits and imaged using time-lapse single cell fluorescence microscopy (Dar et al., 2012, Proc Natl Acad Sci USA 109:17454-17459; Boehm et al., 2013, Cell Cycle 12:452-462) (FIG. 6C). […]

[5] = system: latent HIV-1 in JLat 8.6 cells; assay type: cell-based
[6] = system: latent HIV-1 in primary cells of two donors; assay type: cell-based
Description: (§1) Details on the Siliciano T-Cell model of HIV-1 latency can be found in Yang et al., 2009, J Clin Invest 119:3473-3486. Details on the Planelles T-Cell model of HIV-1 latency can be found in Bosque and Planelles, 2009, Blood 113:58-65.
(§2) To test if VMs enhance reactivation in a primary cell model of latency 14 VMs were selected from the 85 VMs initially screened on the JLat cell line. […] Two separate primary cell models of latency were screened (Bosque and Planelles, 2009, Blood 113:58-65; Yang et al., 2009, J Clin Invest 119:3473-3486) The Siliciano model of latency is generated using primary human CD4+ T cells which are transduced with Bcl-2 to allow long-term in vitro survival. The Bcl-2^+ cells are activated with -CD3/-CD28 antibody and infected with a GFP expressing virus. Cells remain in culture for over a month to allow transition into resting memory states and then sorted for GFP-cells after which the sorted cells are the latent pool of cells tested for reactivation. […] Reactivation experiments were designed with a positive control (PMA with Ionomycin or -CD3/-CD28 activation) as well as media only or VM treatment measurements.

JLat cell line 8.6 = system: JLat cell line 8.6
Protocol: FIG. 17 schematically depicts reactivation percentage versus drug toxicity for conventional reactivation cocktails (e.g. TNF+Prostratin, SAHA+Prostratin, SAHA+TNF+Prostratin) and 21 cocktails containing noise-enhancer compounds in combination with TNF+Prostratin. Controls: TNF alone, Prostratin alone, and Untreated, as indicated. Measurements were performed in duplicate on JLat cell line 8.6 after 48 h treatment. […] Details are described, e.g., in Example 9.
(§3) To test whether reactivation could be further optimized, the doses of noise enhancers and activators were varied (FIG. 14).

[7] = system: latent HIV-1 in JLat cell lines; experiment: Dose response of reactivation in JLat cell lines (FIG. 14); assay type: cell-based; settings: with TNF or Prostratin
Protocol: FIGS. 14A and 14B schematically depict dose response curves for compounds V14 and V82 with TNF and Prostratin. FIG. 14A schematically depicts V14 dose response curves with four different concentrations of TNF (left) and five different concentrations of Prostratin (right) at 24 and 48 hours. […] Details are described, e.g., in Example 9.
as §3

[8] = system: latent HIV-1 in primary human CD4+ T cells; assay type: cell-based
Description: as §1, §2

HIV-1 LTR promoter [9] = experiment: Two-reporter system (LTR-d2GFP and LTR-mCherry) noise measurement; assay type: cell-based; settings: alternate set of integration sites
[10] = Pharmakon 1600 library, 10 uM, 24 hours, FIG. 10

CCCC(CCC)C(=O)O [VPA, 2-propylpentanoic acid]
variability in gene expression (noise magnitude) (HIV-1 LTR promoter [1]): increase variability in gene expression; also recorded: variability enhancers
d2GFP noise (HIV-1 LTR promoter [2]): increase d2GFP noise
mCherry noise (HIV-1 LTR promoter [2]): decrease mCherry noise
time of peak serum levels ([3]; po): 1 to 4 h
serum half-life [3]: 6 to 16 h

CC(=O)O[C@@]12CO[C@@H]1C[C@H](O)[C@@]1(C)C(=O)[C@H](O)C3=C(C)[C@@H](OC(=O)[C@H](O)[C@@H](NC(=O)OC(C)(C)C)c4ccccc4)C[C@@](O)([C@@H](OC(=O)c4ccccc4)[C@H]21)C3(C)C [V1, docetaxel]
identified as variability enhancer (VE) in noise screen (HIV-1 LTR promoter [1]; [10]): variability enhancers
high frequency noise magnitude (HF-CV^2) versus untreated polyclonal population (HIV-1 LTR promoter [4]; 10 μM, 24 hour pretreatment, tracked 12 hours, ~500 cells): increased high frequency noise magnitude; also recorded: increased noise magnitude trends above the untreated population

C[C@@H]1CC[C@H]2[C@@H](C)C(=O)O[C@@H]3O[C@@]4(C)CC[C@@H]1[C@]32OO4 [V14, artemisinin]
identified as variability enhancer (VE) in noise screen (HIV-1 LTR promoter [1]; [10]): variability enhancers
synergy in reactivation of HIV-1 latency [5]: synergized
reactivation when combined with TNFα and Prostratin ([5]; VM + TNFα + Prostratin, 48 hours): further increase reactivation; also recorded: increased activation
synergy with bryostatin [6]: synergized with bryostatin
viability when combined with TNFα and Prostratin (JLat cell line 8.6): without significant reduction in viability
concentration at peak activation ([7]; 24 and 48 hours): about 10 μM

C[C@]12CC[C@@H]3c4ccc(OC(=O)N(CCCl)CCCl)cc4CC[C@H]3[C@@H]1CC[C@@H]2O [V3, estramustine]
identified as variability enhancer (VE) in noise screen (HIV-1 LTR promoter [1]; [10]): variability enhancers
synergy in reactivation of HIV-1 latency [5]: synergized
synergy with activators [8]: synergized with either PMA, prostratin or bryostatin; also recorded: appear to synergize with all three activators

CC(/C=C/C(=O)NO)=C\[C@@H](C)C(=O)c1ccc(N(C)C)cc1 [TSA, [R-(E,E)]-7-[4-(Dimethylamino)phenyl]-N-hydroxy-4,6-dimethyl-7-oxo-2,4-heptadienamide]
variability in gene expression (noise magnitude) (HIV-1 LTR promoter [1]): increase variability in gene expression; also recorded: variability enhancers
d2GFP noise (HIV-1 LTR promoter [2]): increase d2GFP noise
mCherry noise (HIV-1 LTR promoter [2]): decrease mCherry noise
transcriptional burst frequency (decreasing noise in mCherry) (HIV-1 LTR promoter [2]): increase transcriptional burst frequency
transcriptional variability (d2GFP) with dose response (HIV-1 LTR promoter [9]): increasing transcriptional variability

C[C@]12C=CC(=O)N[C@@H]1CC[C@@H]1[C@@H]2CC[C@]2(C)[C@@H](C(=O)Nc3cc(C(F)(F)F)ccc3C(F)(F)F)CC[C@@H]12 [V10, dutasteride]
identified as variability enhancer (VE) in noise screen (HIV-1 LTR promoter [1]): variability enhancers
synergy in reactivation of HIV-1 latency [5]: synergized
synergy with activators [8]: synergized with either PMA, prostratin or bryostatin; also recorded: appear to synergize with all three activators

O=C(O)Cc1ccc(-c2ccccc2)cc1 [V4, felbinac]
identified as variability enhancer (VE) in noise screen (HIV-1 LTR promoter [1]; [10]): variability enhancers
synergy in reactivation of HIV-1 latency [5]: synergized
synergy with bryostatin [6]: synergized with bryostatin

O=C(CCCCCCC(=O)Nc1ccccc1)NO [SAHA, N-hydroxy-N′-phenyl-octanediamide]
identified as variability enhancer (VE) in noise screen (HIV-1 LTR promoter [1]; [10]): variability enhancers
variability in gene expression (noise magnitude) (HIV-1 LTR promoter [1]): increase variability in gene expression; also recorded: variability enhancers
d2GFP noise (HIV-1 LTR promoter [2]): increase d2GFP noise
mCherry noise (HIV-1 LTR promoter [2]): decrease mCherry noise
transcriptional burst frequency (decreasing noise in mCherry) (HIV-1 LTR promoter [2]): increase transcriptional burst frequency
off-target cytotoxicity for uninfected cells (JLat cell line 8.6): substantial off-target cytotoxicity
transcriptional variability (d2GFP) with dose response (HIV-1 LTR promoter [9]): increasing transcriptional variability

O=C(O)COCCN1CCN(C(c2ccccc2)c2ccc(Cl)cc2)CC1 (centres unmarked) [V11, cetirizine hydrochloride]
gene expression noise versus compound concentration (HIV-1 LTR promoter [1]): increasing trend in gene expression noise
identified as variability enhancer (VE) in noise screen (HIV-1 LTR promoter [1]): variability enhancers
high frequency noise magnitude (HF-CV^2) versus untreated polyclonal population (HIV-1 LTR promoter [4]; hydrochloride): increased high frequency noise magnitude; also recorded: increased noise magnitude trends above the untreated population
concentration at peak in HIV-1 reactivation [5]: 25 µM
synergy in reactivation of HIV-1 latency [5]: synergized
reactivation relative to Prostratin alone ([5]; hydrochloride): about twice; also recorded: about three times
reactivation relative to TNFα alone ([5]; hydrochloride): about twice; also recorded: about three times
reactivation relative to TNFα or Prostratin alone (dose response surface) ([5]; hydrochloride): more than three times; also recorded: almost double; also recorded: greater reactivation
reactivation when combined with TNFα and Prostratin ([5]; hydrochloride): further increase reactivation; also recorded: increased activation
viability when combined with TNFα and Prostratin (JLat cell line 8.6): without significant reduction in viability

O=c1[nH]c(=O)n([C@H]2C[C@H](O)[C@@H](CO)O2)cc1I [V82, idoxuridine]
identified as variability enhancer (VE) in noise screen (HIV-1 LTR promoter [1]; [10]): variability enhancers
synergy in reactivation of HIV-1 latency [5]: synergized
concentration at maximal reactivation ([7]; 48 hours, two JLat cell lines): 50 µM
